Measurements: US9309336B2, “Synthesis and antiscalant behavior of a novel polyzwitterionic acid” (King Fahd University of Petroleum and Minerals, priority 2013, dated 2016)
Where “and” joins values, the source holds several entries; their conditions need not be identical. Identical values can stand only once.

Key:
[1] = Potentiometric titration for protonation (basicity) constants; format: physicochemical; details: 23° C.; for Log K1^o (first protonation), Average / Log K2^o (second protonation), Average / n1 (first protonation), Average / n2 (second protonation), Average: average of runs 1-3, SD in last digit in parentheses
Protocol: Protonation constants (K1 and K2) of polymer 8 [ZH2^±=] and its corresponding monomer unit 11 [ZH2^±=] were determined by potentiometric titrations which were carried out in atmosphere of N2 in CO2-free water as described elsewhere using a solution (Tables 3 and 4) of PZDA 6 [ZH2^±] or monomer form 11 [ZH2^±=] in 200 cm^3 of salt-free water or 0.1 N NaCl (S. A. Ali, et al., J. Polym. Sc. A: Polym. Chem. 2010, 48, 5693-5703—incorporated herein by reference in its entirety). The Log K1 and Log K2 of the —P(═O)O^= (in 8 or 11) are calculated at each pH value by the Henderson-Hasselbalch eq 2 (Scheme 1) where a is the ratio [ZH^±−]eq/[Z]o and [ZH2^±]eq/[Z]o, respectively. The [ZH^±−]eq and [ZH2^±]eq represent the respective equilibrium concentrations of the first and second protonated species whereas [Z]o describes the initial concentration of repeating units.
For the determination of the second step protonation constant (log K2) of —P(═O)(OH)O^− (i.e. [ZH^±−]) using the titration of polymer 6 [ZH2^±] with NaOH, [Z]o and [ZH2^±]eq are related by [ZH2^±]eq=[Z]o−COH^−−[H^+]+[OH^−], where COH^− represent the added NaOH concentration. The equilibrium [H^+] and [OH^−] values were calculated from the pH value (W. K. Felty, J. Chem. Educ. 1978, 55, 576; R. Barbucci, et al., Macromolecules 1981, 14, 1203-1209—each incorporated herein by reference in its entirety). The first step protonation constant (log K1) involving the protonation of —P(═O)(O^−)2 (i.e. [Z^±=]) using volume of the titrant after deducting the equivalent volume from the total volume. In this case, α represents the ratio [ZH^±−]eq/[Z]o whereby [ZH^±−]eq equals [Z]o−COH^−−[H^+]+[OH^−]. For the titration of 11 [Z^±=] with HCl, the protonated species' concentration is given by: [ZHi=1,2]eq═CH^+−[H^+]+[OH^−].
Eq. 3 (Scheme 1) describes the apparent basicity constants of —P(═O)(O^−)2 where log K^o=pH at α=0.5 and n=1 in the case of sharp basicity constants.
The ‘n’ and log K^o as the respective slope and intercept were determined from the linear regression fit of pH vs. log [(1−α)/α)]. Protonation at the same time of the three basic sites: —PO3^=(log K1≈+8), —PO3H^− (log K2≈+3) and —SO3^−(log K3≈−2.1) (J. P. Guthrie, Can. J. Chem. 1978, 56, 2342-2354—incorporated herein by reference in its entirety) is not likely due to differences of their basicity constants by about 5 orders of magnitude (vide infra). Note that basicity constant log K of any base B is the pKa of its conjugate acid BH^+.

[2] = Solubility of monomer 4 (observation at isolation); format: physicochemical
Protocol: Synthesis of 3-[Diallyl{3-(diethoxyphosphoryl)propyl}ammonio]propane-1-sulfonate (4) preferably occurs by the following method: under N2 at 70° C., a solution of diethyl 3-(diallylamino)propylphosphonate 2 (15.0 g, 54.5 mmol) and 3 (7.0 g, 57.3 mmol) in CH3CN (30 cm^3) was stirred for 60 h. The residue, after removal of acetonitrile, was crystallized from acetone (30 cm^3) in the presence of small amount of methanol to give white crystals of 4 (19.5 g, 90%). The extremely hygroscopic monomer is insoluble in acetone but soluble in methanol or water. Mp 140-142° C. (closed capillary); (Found: C, 47.9; H, 8.4; N, 3.4; S, 7.8%. C16H32NO6PS requires C, 48.35; H, 8.11; N, 3.52; S, 8.07%); νmax (KBr): 3402, 2985, 2940, 1644, 1479, 1428, 1394, 1213, 1042, 967, 875, 786, 733 and 605 cm^−1; δH (D2O) 1.22 (6H, t, J=7 Hz), 1.86 (2H, m), 1.96 (2H, m), 2.11 (2H, m), 2.84 (2H, t, J=7.5 Hz), 3.23 (2H, apparent t, J=10 Hz), 3.31 (2H, apparent t, J=10 Hz), 3.85 (4H, d, J=7 Hz), 4.04 (4H, m), 5.64 (4H, m), 5.89 (2H, m), (HOD: 4.65); δC (D2O) 15.83 (s, PCH2CH2), 16.47 (d, 2C, Me, ^3J (PC) 4.1 Hz), 18.29 (s, SCH2CH2), 21.45 (d, PCH2, ^1J (PC) 143 Hz), 47.97 (s, SCH2CH2CH2), 57.26 (s, SCH2CH2CH2), 58.32 (d, PCH2CH2CH2, ^3J (PC) 16.4 Hz), 61.72 (2C, ═CH—CH2, s), 64.38 (d, 2C, OCH2CH3, ^2J (PC) 6.2 Hz), 124.40 (2C, s, CH2=CH), 129.80 (2C, s, CH2═CH) (dioxane: 67.40 ppm); δP (202 MHz, D2O): 31.01 (s). DEPT 135 NMR analysis was carried out to assign the ^13C signals.

[3] = 0.1M NaCl, single runs (polymer runs 1, 2 in the presence of 1.5 mL of 0.1222M HCl)

| Log K1^o (first protonation), Average ([1]; 0.1M NaCl) | Log K2^o (second protonation), Average ([1]; 0.1M NaCl) | n1 (first protonation), Average ([1]; 0.1M NaCl) | n2 (second protonation), Average ([1]; 0.1M NaCl) | Log K1^o (first protonation) ([1]; 0.1M NaCl, single runs) | n1 (first protonation) ([1]; 0.1M NaCl, single runs) | Log K2^o (second protonation) [1, 3] | n2 (second protonation) [1, 3] | Log K1^o (first protonation), Average ([1]; Salt-Free water) | Log K2^o (second protonation), Average ([1]; Salt-Free water) | n1 (first protonation), Average ([1]; Salt-Free water) | n2 (second protonation), Average ([1]; Salt-Free water) | Log K1^o (first protonation) ([1]; Salt-Free water, single runs) | Log K2^o (second protonation) ([1]; Salt-Free water, single runs) | n1 (first protonation) ([1]; Salt-Free water, single runs) | n2 (second protonation) ([1]; Salt-Free water, single runs) | Structure (SMILES) | solubility ([2]; acetone) | solubility ([2]; methanol) | solubility ([2]; water) |
| --- | --- | --- | --- | --- | --- | --- | --- | --- | --- | --- | --- | --- | --- | --- | --- | --- | --- | --- | --- |
| 7.12 (1) | 2.90 (5) | 1.03 (1) | 1.01 (4) | 7.12 and 7.11 and 7.13 | 1.03 and 1.04 | 2.91 and 2.84 and 2.94 | 0.993 and 1.06 and 0.990 | 7.53 | 2.74 (2) | 1.04 (1) | 1.02 (3) | 7.50 and 7.54 and 7.55 | 2.75 and 2.72 | 1.04 and 1.05 | 1.02 and 0.984 and 1.05 | C=CC[N+](CC=C)(CCCP(=O)([O-])[O-])CCCS(=O)(=O)[O-].[Na+].[Na+] [Monomer 11] | – | – | – |
| – | – | – | – | – | – | – | – | – | – | – | – | – | – | – | – | C=CC[N+](CC=C)(CCCP(=O)(OCC)OCC)CCCS(=O)(=O)[O-] [Monomer 4, 3-[diallyl{3-(diethoxyphosphoryl)propyl}ammonio]propane-1-sulfonate] | insoluble | soluble | soluble |
